Data: US7138361B2, “Herbicidal heterocycles” (E. I. du Pont de Nemours and Company, priority 2000, dated 2006)

What was measured:
Assay type in all cases: in vivo
[1] = system: rice (Oryza saliva); assay: Test C flooded paddy test; settings: for Rice plant response rating: Flooded Paddy, scale 0 to 100, 0 no effect, 100 complete control; for Plant response rating, Rice: flooded paddy test, scale 0 to 100 (0 no effect, 100 complete control)
Summary of the method: (§1)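 Visual injury score, 0 (no effect) to 100 (complete control), relative to controls. Paddy plants treated at 2-leaf stage; greenhouse hold 12–14 d before rating.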

[2] = system: duck salad (Heteranthera limosa); assay: Test C flooded paddy test; settings: for Ducksalad plant response rating: Flooded Paddy, scale 0 to 100, 0 no effect, 100 complete control; for Plant response rating, Ducksalad: flooded paddy test, scale 0 to 100 (0 no effect, 100 complete control)
Summary of the method: as §1

[3] = system: barnyardgrass (Echinochloa crus-galli); assay: Test C flooded paddy test; settings: for Barnyardgrass plant response rating: Flooded Paddy, scale 0 to 100, 0 no effect, 100 complete control; for Plant response rating, Barnyardgrass: flooded paddy test, scale 0 to 100 (0 no effect, 100 complete control)
Summary of the method: as §1

[4] = system: smallflower flatsedge (Cyperus difformis); assay: Test C flooded paddy test; settings: for Flatsedge plant response rating: Flooded Paddy, scale 0 to 100, 0 no effect, 100 complete control; for Plant response rating, Flatsedge: flooded paddy test, scale 0 to 100 (0 no effect, 100 complete control)
Summary of the method: as §1

[5] = system: velvetleaf (Abutilon theophrasti); assay: Test B postemergence; settings: 13 to 15 days
Summary of the method: (§2)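 Preemergence: seeds planted and treated with test chemicals in non-phytotoxic solvent with surfactant; postemergence on plants 2–18 cm (1- to 4-leaf stage). Kept in greenhouse 13–15 days, then visually rated against controls on a 0 (no effect) to 100 (complete control) scale.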

[6] = system: cocklebur (Xanthium strumarium); assay: Test B postemergence; settings: 13 to 15 days
Summary of the method: as §2

[7] = system: lambsquarters (Chenopodium album); assay: Test B postemergence; settings: 13 to 15 days
Summary of the method: as §2

[8] = system: crabgrass (Digitaria sanguinalis); assay: Test B postemergence; settings: 13 to 15 days
Summary of the method: as §2

[9] = system: corn (Zea mays); assay: Test B postemergence; settings: 13 to 15 days
Summary of the method: as §2

[10] = system: pigweed (Amaranthus retroflexus); assay: Test B postemergence; settings: 13 to 15 days
Summary of the method: as §2

[11] = system: wild oat (Avena fatua); assay: Test B postemergence; settings: 13 to 15 days
Summary of the method: as §2

[12] = system: morning glory (Ipomoea hederacea); assay: Test B postemergence; settings: 13 to 15 days
Summary of the method: as §2

[13] = system: giant foxtail (Setaria faberii); assay: Test B postemergence; settings: 13 to 15 days
Summary of the method: as §2

[14] = system: Surinam grass (Brachiaria decumbens); assay: Test B postemergence; settings: 13 to 15 days
Summary of the method: as §2

[15] = system: wheat (Triticum aestivum); assay: Test B postemergence; settings: 13 to 15 days
Summary of the method: as §2

[16] = system: barnyardgrass (Echinochloa crus-galli); assay: Test B postemergence; settings: 13 to 15 days
Summary of the method: as §2

[17] = system: blackgrass (Alopecurus myosuroides); assay: Test B postemergence; settings: 13 to 15 days
Summary of the method: as §2

[18] = system: velvetleaf (Abutilon theophrasti); assay: Test B preemergence
Summary of the method: as §2

[19] = system: cocklebur (Xanthium strumarium); assay: Test B preemergence
Summary of the method: as §2

[20] = system: rice (Oryza saliva); assay: Test B preemergence
Summary of the method: as §2

[21] = system: lambsquarters (Chenopodium album); assay: Test B preemergence
Summary of the method: as §2

[22] = system: crabgrass (Digitaria sanguinalis); assay: Test B preemergence
Summary of the method: as §2

[23] = system: corn (Zea mays); assay: Test B preemergence
Summary of the method: as §2

[24] = system: pigweed (Amaranthus retroflexus); assay: Test B preemergence
Summary of the method: as §2

[25] = system: morning glory (Ipomoea hederacea); assay: Test B preemergence
Summary of the method: as §2

[26] = system: giant foxtail (Setaria faberii); assay: Test B preemergence
Summary of the method: as §2

[27] = system: Surinam grass (Brachiaria decumbens); assay: Test B preemergence
Summary of the method: as §2

[28] = system: barnyardgrass (Echinochloa crus-galli); assay: Test B preemergence
Summary of the method: as §2

[29] = Rate 125 g/ha, scale 0 (no effect) to 100 (complete control)
[30] = Rate 500 g/ha, scale 0 to 100, 0 is no effect, 100 is complete control
[31] = Preemergence, Rate 500 g/ha, scale 0 to 100, 0 no effect, 100 complete control
[32] = preemergence, Rate 125 g/ha, scale of 0 to 100 where 0 is no effect and 100 is complete control, 13 to 15 days

In the case of `CC(C)c1ccn(C2OCN(c3cccc(OC(F)(F)F)c3)C2=O)n1` (stereo not shown) [Compound 65], the “Rice plant response rating” value ([1]; Rate 250 g/ha) is reported as 90, the “Rice plant response rating” value ([1]; Rate 500 g/ha) is reported as 90 and the “Plant response rating, Rice” value ([1]; Rate 62 g/ha) is reported as 0. For the same compound, the “Plant response rating, Rice” value ([1]; Rate 125 g/ha) was 40, the “Ducksalad plant response rating” value ([2]; Rate 250 g/ha) was 30 and the “Ducksalad plant response rating” value ([2]; Rate 500 g/ha) was 90. The “Plant response rating, Ducksalad” value ([2]; Rate 62 g/ha) was 0, the “Plant response rating, Ducksalad” value ([2]; Rate 125 g/ha) was 0 and the “Barnyardgrass plant response rating” value ([3]; Rate 250 g/ha) was 100. The “Barnyardgrass plant response rating” value ([3]; Rate 500 g/ha) was 100, the “Plant response rating, Barnyardgrass” value ([3]; Rate 62 g/ha) was 40 and the “Plant response rating, Barnyardgrass” value ([3]; Rate 125 g/ha) was 80. The “Flatsedge plant response rating” value ([4]; Rate 250 g/ha) was 100, the “Flatsedge plant response rating” value ([4]; Rate 500 g/ha) was 100 and the “Plant response rating, Flatsedge” value ([4]; Rate 62 g/ha) was 0. The “Plant response rating, Flatsedge” value ([4]; Rate 125 g/ha) was 100, the “Plant response rating, Velvetleaf” value [5, 29] was 0 and the “Plant response rating, Velvetleaf” value [5, 30] was 0. For the same compound, the “Plant response rating, Cocklebur” value [6, 29] was 20, the “Plant response rating, Cocklebur” value [6, 30] was 30 and the “Plant response rating, Lambsquarters” value [7, 29] was 60. The “Plant response rating, Lambsquarters” value [7, 30] was 70, the “Plant response rating, Crabgrass” value [8, 29] was 0 and the “Plant response rating, Crabgrass” value [8, 30] was 100. For the same compound, the “Plant response rating, Corn” value [9, 29] was 0, the “Plant response rating, Corn” value [9, 30] was 0 and the “Plant response rating, Pigweed” value [10, 29] was 0. For the same compound, the “Plant response rating, Pigweed” value [10, 30] was 0, the “Plant response rating, Wild Oat” value [11, 29] was 0 and the “Plant response rating, Wild Oat” value [11, 30] was 0. The “Plant response rating, Morningglory” value [12, 29] was 0, the “Plant response rating, Morningglory” value [12, 30] was 0 and the “Plant response rating, Foxtail, Giant” value [13, 29] was 0. The “Plant response rating, Foxtail, Giant” value [13, 30] was 0, the “Plant response rating, Surinam grass” value [14, 29] was 20 and the “Plant response rating, Surinam grass” value [14, 30] was 40. For the same compound, the “Plant response rating, Wheat” value [15, 29] was 0, the “Plant response rating, Wheat” value [15, 30] was 0 and the “Plant response rating, Barnyardgrass” value [16, 29] was 0. For the same compound, the “Plant response rating, Barnyardgrass” value [16, 30] was 100, the “Plant response rating, Blackgrass” value [17, 29] was 0 and the “Plant response rating, Blackgrass” value [17, 30] was 0. The “Plant response rating, Velvetleaf” value [18, 31] was 20, the “Plant response rating, Velvetleaf” value [18, 32] was 0 and the “Plant response rating, Cocklebur” value [19, 31] was 20. For the same compound, the “Plant response rating, Cocklebur” value [19, 32] was 0, the “Plant response rating, Rice” value [20, 31] was 20 and the “Plant response rating, Rice” value [20, 32] was 0. The “Plant response rating, Lambsquarters” value [21, 31] was 100, the “Plant response rating, Lambsquarters” value [21, 32] was 100 and the “Plant response rating, Crabgrass” value [22, 31] was 70. For the same compound, the “Plant response rating, Crabgrass” value [22, 32] was 20, the “Plant response rating, Corn” value [23, 31] was 0 and the “Plant response rating, Corn” value [23, 32] was 0. For the same compound, the “Plant response rating, Pigweed” value [24, 31] was 100, the “Plant response rating, Pigweed” value [24, 32] was 100 and the “Plant response rating, Morningglory” value [25, 31] was 0. The “Plant response rating, Morningglory” value [25, 32] was 0, the “Plant response rating, Foxtail, Giant” value [26, 31] was 70 and the “Plant response rating, Foxtail, Giant” value [26, 32] was 20. For the same compound, the “Plant response rating, Surinam grass” value [27, 31] was 20, the “Plant response rating, Surinam grass” value [27, 32] was 0 and the “Plant response rating, Barnyardgrass” value [28, 31] was 100. The “Plant response rating, Barnyardgrass” value [28, 32] was 90.
